The values that follow come from patent US20260015358A1, “BICYCLIC DERIVATIVES, COMPOSITIONS AND USES THEREOF” (Danatlas Pharmaceuticals Co., Ltd., priority 2023, published 2026).

In assay [1] the target is T1, WRN [UniPro: Q14191 (WRN_HUMAN), N500-C946] (Homo sapiens (Human), UniProt Q14191). Nature of the assay: WRN ATPase assay (ADP-Glo). The format is biochemical. Particulars: WRN enzymatic activity assay. On the technique in general: ADP-Glo turns the ADP formed in a reaction into a luminescent signal.
Assay [2] addresses T1, WRN [UniPro: Q14191 (WRN_HUMAN), N500-C946]. Nature of the assay: WRN unwinding assay (FORKF DNA, fluorescence). In kind it is biochemical. Particulars: Table 14.

pIC50: −log10 of the molar value.

T1 sequence (Q14191 500-946): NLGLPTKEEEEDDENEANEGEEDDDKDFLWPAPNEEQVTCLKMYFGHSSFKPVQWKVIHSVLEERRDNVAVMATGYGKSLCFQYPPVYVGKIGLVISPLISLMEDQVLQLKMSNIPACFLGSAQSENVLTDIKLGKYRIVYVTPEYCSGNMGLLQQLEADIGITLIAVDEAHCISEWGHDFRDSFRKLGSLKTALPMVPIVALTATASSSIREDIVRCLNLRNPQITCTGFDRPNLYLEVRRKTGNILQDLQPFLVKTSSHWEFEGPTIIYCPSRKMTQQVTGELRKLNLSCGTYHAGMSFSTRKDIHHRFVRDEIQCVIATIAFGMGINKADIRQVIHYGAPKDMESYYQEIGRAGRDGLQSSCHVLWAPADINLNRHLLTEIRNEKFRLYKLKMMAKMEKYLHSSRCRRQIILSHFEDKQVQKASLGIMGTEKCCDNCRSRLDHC

Usually pIC50 stands for the IC50 on a negative log10 scale, so that one unit is a factor of ten. As for `CCc1c(N2CCN(C(=O)CNC(=O)c3ccccc3F)CC2)c(=O)n2nc(N3Cc4cnn(C)c4C3)nc2n1CC(=O)Nc1cc(C)cs1` [Example 263, N-(2-(4-(5-Ethyl-2-(1-methyl-4,6-dihydropyrrolo[3,4-c]pyrazol-5 (1H)-yl)-4-(2-((4-methylthiophen-2-yl)amino)-2-oxoethyl)-7-oxo-4,7-dihydro-[1,2,4]triazolo[1,5-a]pyrimidin-6-yl)piperazin-1-yl)-2-oxoethyl)-2-fluorobenzamide], the pIC50 in assay [1] and in assay [2] was above 7.00 throughout.
With `CCc1c(N2CCN(C(=O)CNC(=O)c3nc(C)co3)CC2)c(=O)n2nc(C3=CCOCC3)nc2n1CC(=O)Nc1ccc(C(F)(F)F)cc1Cl` [Example 301, N-(2-(4-(4-(2-((2-Chloro-4-(trifluoromethyl)phenyl)amino)-2-oxoethyl)-2-(3,6-dihydro-2H-pyran-4-yl)-5-ethyl-7-oxo-4,7-dihydro-[1,2,4]triazolo[1,5-a]pyrimidin-6-yl)piperazin-1-yl)-2-oxoethyl)-4-methyloxazole-2-carboxamide], the pIC50 in assay [1] and in assay [2] was 6.00 to 7.00 each time.
Regarding `CCc1c(N2CCN(C(=O)C(=O)Nc3nccs3)CC2)c(=O)n2nc(N3CCCOCC3)nc2n1CC(=O)Nc1ccc(C(F)(F)F)cc1F` [Example 262, 2-(4-(5-Ethyl-4-(2-((2-fluoro-4-(trifluoromethyl)phenyl)amino)-2-oxoethyl)-2-(1,4-oxazepan-4-yl)-7-oxo-4,7-dihydro-[1,2,4]triazolo[1,5-a]pyrimidin-6-yl)piperazin-1-yl)-2-oxo-N-(thiazol-2-yl)acetamide], the values for the pIC50 in assay [1] and in assay [2] were 6.00 to 7.00 and above 7.00, respectively.
In the case of `CCc1c(N2CCN(C(=O)c3cc4ccnn4cn3)CC2)c(=O)n2nc(C3=CCOCC3)nc2n1CC(=O)Nc1ccc(C(F)(F)F)cc1Cl` [Example 296, N-(2-Chloro-4-(trifluoromethyl)phenyl)-2-(2-(3,6-dihydro-2H-pyran-4-yl)-5-ethyl-7-oxo-6-(4-(pyrazolo[1,5-c]pyrimidine-5-carbonyl)piperazin-1-yl)-[1,2,4]triazolo[1,5-a]pyrimidin-4(7H)-yl)acetamide], the pIC50 in assay [1] and in assay [2] was 6.00 to 7.00 throughout.
As for `CCc1c(N2CCN(C(=O)CNC(=O)c3cncs3)CC2)c(=O)n2nc(C3=CCOCC3)nc2n1CC(=O)Nc1ccc(C(F)(F)F)cc1Cl` [Example 268, N-(2-(4-(4-(2-((2-Chloro-4-(trifluoromethyl)phenyl)amino)-2-oxoethyl)-2-(3,6-dihydro-2H-pyran-4-yl)-5-ethyl-7-oxo-4,7-dihydro-[1,2,4]triazolo[1,5-a]pyrimidin-6-yl)piperazin-1-yl)-2-oxoethyl)thiazole-5-carboxamide], the pIC50 in assay [1] and in assay [2] was above 7.00 in each case.
Consider `CCc1c(N2CCN(C(=O)CNC(=O)c3cnn(C)c3)CC2)c(=O)n2nc(C3=CCOCC3)nc2n1CC(=O)Nc1ccc(C(F)(F)F)cc1Cl` [Example 103, N-(2-(4-(4-(2-((2-Chloro-4-(trifluoromethyl)phenyl)amino)-2-oxoethyl)-2-(3,6-dihydro-2H-pyran-4-yl)-5-ethyl-7-oxo-4,7-dihydro-[1,2,4]triazolo[1,5-a]pyrimidin-6-yl)piperazin-1-yl)-2-oxoethyl)-1-methyl-1H-pyrazole-4-carboxamide], for which the pIC50 in assay [1] and in assay [2] was above 7.00 throughout.
`CCc1c(N2CCN(C(=O)c3ncnc4cn[nH]c34)CC2)c(=O)n2nc(C3=CCOCC3)nc2n1CC(=O)Nc1ccc(C(F)(F)F)cc1Cl` [Example 17, 2-(6-(4-(1H-Pyrazolo[4,3-d]pyrimidine-7-carbonyl)piperazin-1-yl)-2-(3,6-dihydro-2H-pyran-4-yl)-5-ethyl-7-oxo-[1,2,4]triazolo[1,5-a]pyrimidin-4(7H)-yl)-N-(2-chloro-4-(trifluoromethyl)phenyl)acetamide]: the pIC50 in assay [1] and in assay [2] was above 7.00 throughout.
As to `CCc1c(N2CCN(C(=O)CNC(=O)c3ncco3)CC2)c(=O)n2nc(N3CCOCC3)nc2n1CC(=O)Nc1ccc(C(F)(F)F)cc1Cl` [Example 249, N-(2-(4-(4-(2-((2-Chloro-4-(trifluoromethyl)phenyl)amino)-2-oxoethyl)-5-ethyl-2-morpholino-7-oxo-4,7-dihydro-[1,2,4]triazolo[1,5-a]pyrimidin-6-yl)piperazin-1-yl)-2-oxoethyl)oxazole-2-carboxamide], the pIC50 in assay [1] and in assay [2] was above 7.00 each time.
As to `CCc1c(N2CCN(C(=O)CNC(=O)OC(C)(C)C)CC2)c(=O)n2nc(C3=CCOCC3)nc2n1CC(=O)Nc1ccc(C(F)(F)F)cc1Cl` [Example 37, tert-Butyl (2-(4-(4-(2-((2-chloro-4-(trifluoromethyl)phenyl)amino)-2-oxoethyl)-2-(3,6-dihydro-2H-pyran-4-yl)-5-ethyl-7-oxo-4,7-dihydro-[1,2,4]triazolo[1,5-a]pyrimidin-6-yl)piperazin-1-yl)-2-oxoethyl)carbamate], the pIC50 in assay [1] was above 7.00; in assay [2], 6.00 to 7.00.
On the same counts, the results for `CCc1c(N2CCN(C(=O)CNC(=O)c3cc(N)c(F)cc3F)CC2)c(=O)n2nc(C3=CCOCC3)nc2n1CC(=O)Nc1ccc(C(F)(F)F)cc1Cl` [Example 373, 5-Amino-N-(2-(4-(4-(2-((2-chloro-4-(trifluoromethyl)phenyl)amino)-2-oxoethyl)-2-(3,6-dihydro-2H-pyran-4-yl)-5-ethyl-7-oxo-4,7-dihydro-[1,2,4]triazolo[1,5-a]pyrimidin-6-yl)piperazin-1-yl)-2-oxoethyl)-2,4-difluorobenzamide] are above 7.00 and 6.00 to 7.00.
The matching figures for `CCc1c(N2CCN(C(=O)CNC(=O)c3ccc(F)cc3)CC2)c(=O)n2nc(C3=CCOCC3)nc2n1CC(=O)Nc1ccc(C(F)(F)F)cc1Cl` [Example 98, N-(2-(4-(4-(2-((2-Chloro-4-(trifluoromethyl)phenyl)amino)-2-oxoethyl)-2-(3,6-dihydro-2H-pyran-4-yl)-5-ethyl-7-oxo-4,7-dihydro-[1,2,4]triazolo[1,5-a]pyrimidin-6-yl)piperazin-1-yl)-2-oxoethyl)-4-fluorobenzamide]: above 7.00 and above 7.00.
Take `CCc1c(N2CCN(C(=O)C(=O)Nc3nccs3)CC2)c(=O)n2nc(N3Cc4ccncc4C3)nc2n1CC(=O)Nc1ccc(C(F)(F)F)cc1Cl` [Example 259, 2-(4-(4-(2-((2-Chloro-4-(trifluoromethyl)phenyl)amino)-2-oxoethyl)-2-(1,3-dihydro-2H-pyrrolo[3,4-c]pyridin-2-yl)-5-ethyl-7-oxo-4,7-dihydro-[1,2,4]triazolo[1,5-a]pyrimidin-6-yl)piperazin-1-yl)-2-oxo-N-(thiazol-2-yl)acetamide]: the pIC50 was 6.00 to 7.00 in assay [1] and above 7.00 in assay [2].
On the same counts, the results for `CCc1c(N2CCN(C(=O)c3[nH]ncc3C(F)(F)F)CC2)c(=O)n2nc(C3=CCOCC3)nc2n1CC(=O)Nc1ccc(C(F)(F)F)cc1Cl` [Example 19, N-(2-Chloro-4-(trifluoromethyl)phenyl)-2-(2-(3,6-dihydro-2H-pyran-4-yl)-5-ethyl-7-oxo-6-(4-(4-(trifluoromethyl)-1H-pyrazole-5-carbonyl)piperazin-1-yl)-[1,2,4]triazolo[1,5-a]pyrimidin-4(7H)-yl)acetamide] are below 6.00 and below 6.00.
On the same counts, the results for `CCc1c(N2CCN(C(=O)CNC(=O)c3ccc(F)c(NC)c3)CC2)c(=O)n2nc(N3CCOCC3)nc2n1CC(=O)Nc1ccc(C(F)(F)F)cc1Cl` [Example 251, N-(2-(4-(4-(2-((2-Chloro-4-(trifluoromethyl)phenyl)amino)-2-oxoethyl)-5-ethyl-2-morpholino-7-oxo-4,7-dihydro-[1,2,4]triazolo[1,5-a]pyrimidin-6-yl)piperazin-1-yl)-2-oxoethyl)-4-fluoro-3-(methylamino)benzamide] are above 7.00 and above 7.00.
On to `CCc1c(N2CCN(C(=O)CNC(=O)c3cnc(C)s3)CC2)c(=O)n2nc(C3=CCOCC3)nc2n1CC(=O)Nc1ccc(C(F)(F)F)cc1Cl` [Example 131, N-(2-(4-(4-(2-((2-Chloro-4-(trifluoromethyl)phenyl)amino)-2-oxoethyl)-2-(3,6-dihydro-2H-pyran-4-yl)-5-ethyl-7-oxo-4,7-dihydro-[1,2,4]triazolo[1,5-a]pyrimidin-6-yl)piperazin-1-yl)-2-oxoethyl)-2-methylthiazole-5-carboxamide], for which the pIC50 in assay [1] is 6.00 to 7.00; in assay [2], above 7.00.
The matching figures for `CCc1c(N2CCN(C(=O)CNC(=O)c3ccncc3)CC2)c(=O)n2nc(C3=CCOCC3)nc2n1CC(=O)Nc1ccc(C(F)(F)F)cc1Cl` [Example 96, N-(2-(4-(4-(2-((2-Chloro-4-(trifluoromethyl)phenyl)amino)-2-oxoethyl)-2-(3,6-dihydro-2H-pyran-4-yl)-5-ethyl-7-oxo-4,7-dihydro-[1,2,4]triazolo[1,5-a]pyrimidin-6-yl)piperazin-1-yl)-2-oxoethyl)isonicotinamide]: above 7.00 and above 7.00.
The matching figures for `CCc1c(N2CCN(C(=O)CNC(=O)N3Cc4ccccc4C3)CC2)c(=O)n2nc(C3=CCOCC3)nc2n1CC(=O)Nc1ccc(C(F)(F)F)cc1Cl` [Example 185, N-(2-(4-(4-(2-((2-Chloro-4-(trifluoromethyl)phenyl)amino)-2-oxoethyl)-2-(3,6-dihydro-2H-pyran-4-yl)-5-ethyl-7-oxo-4,7-dihydro-[1,2,4]triazolo[1,5-a]pyrimidin-6-yl)piperazin-1-yl)-2-oxoethyl)isoindoline-2-carboxamide]: above 7.00 and above 7.00.
On the same counts, the results for `CCc1c(N2CCN(C(=O)CNC(=O)c3cc(NC)ccc3F)CC2)c(=O)n2nc(C3=CCOCC3)nc2n1CC(=O)Nc1ccc(C(F)(F)F)cc1F` [Example 215, N-(2-(4-(2-(3,6-dihydro-2H-pyran-4-yl)-5-ethyl-4-(2-((2-fluoro-4-(trifluoromethyl)phenyl)amino)-2-oxoethyl)-7-oxo-4,7-dihydro-[1,2,4]triazolo[1,5-a]pyrimidin-6-yl)piperazin-1-yl)-2-oxoethyl)-2-fluoro-5-(methylamino)benzamide] are above 7.00 and above 7.00.
